Our source for the RP-LC retention time values is the METLIN SMRT retention time set (Domingo-Almenara et al. 2019).

The nature of the series: gradient 5% acetonitrile 3 min, to 50% in 2 min, to 85% in 15 min, held 3 min, 100 µL/min. The settings on record: column: Zorbax Extend-C18 2.1 x 50 mm; eluents: water / acetonitrile, 0.1% formic acid. The essentials:
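Retention times of pure standards were taken from adduct peaks that were selected by computer and manually inspected. Over 3 months, mixtures of ~100 molecules were run by HPLC–quadrupole time-of-flight mass spectrometry in positive and negative ionization mode. The Zorbax Extend-C18 column (2.1 × 50 mm, 1.8 μm) ran at 100 μL/min in water and acetonitrile, each containing 0.1% formic acid, with 40 μL dead volume and 900 μL dwell volume.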
Compound `Cc1cc2c(c(=O)n(-c3ccc(F)cc3)c(=O)n2CC(=O)N2CCCc3ccccc32)n1C` gave an RP-LC retention time of 893 s.

In the case of `COc1cccc(CNS(=O)(=O)c2ccc3c(c2)CCCC(=O)N3)c1`, the RP-LC retention time worked out at 714 s.

Compound `Cc1ccc(C)c(CNC(=O)c2nc(C)oc2C)c1` had an RP-LC retention time of 867 s.

`Cc1[nH]c(C(=O)N2CCC(CC(=O)N3CCN(c4ccccn4)CC3)CC2)c(C)c1C(=O)OC(C)C` had an RP-LC retention time of 628 s.

Consider `COc1cc(CN(CC2CCCO2)C(=O)c2oc3ccccc3c2C)cc(OC)c1OC` (stereo not given), for which the RP-LC retention time was determined as 1030 s.

For `Cc1ccc(NC(=O)N2CCCC2c2nncn2-c2ccccc2)c(Cl)c1` (stereo not given), the RP-LC retention time worked out at 794 s.

The compound `CCOc1ccc(S(=O)(=O)N(CC)CC(=O)N2CCNCC2)cc1` returned an RP-LC retention time of 623 s.

Take `O=C(O)CCc1ccc(NCc2cccc(Oc3ccccc3)c2)cc1`: the RP-LC retention time was determined as 1040 s.

As to `CCCn1cnc2cc(CNC(=O)c3ccc(-n4c(C)ccc4C)cc3)ccc21`, the RP-LC retention time amounted to 722 s.

Consider `O=C(c1cccs1)N1CCCC1c1ccc(F)cc1` (stereo not given), for which the RP-LC retention time was found to be 910 s.

On to `CC(C)c1ccc(-n2nc(N3CCN(C(=O)C4CC4)CC3)ccc2=O)cc1`, for which the RP-LC retention time is 810 s.

`Cc1ccc(N2CC(c3nc(-c4ccc5c(c4)oc(=O)n5C(C)C)no3)CC2=O)cc1` (stereo not given) returned an RP-LC retention time of 990 s.

As to `CCCN1C(=O)c2c(C(=O)NCc3ccc(F)cc3)ncn2CC1(C)C(=O)NC1CCCC1` (stereo not given), the RP-LC retention time is 796 s.

As to `O=C(Cn1ncc2c(N3CCN(c4ccccn4)CC3)ncnc21)Nc1cc(F)cc(F)c1`, the RP-LC retention time worked out at 634 s.

As for `O=C(NCc1cccc(Oc2ccc(F)cc2)c1)c1cccnc1`, the RP-LC retention time was 588 s.

`Cc1ccc(OCc2nc3c4ccccc4ncn3n2)cc1` had an RP-LC retention time of 934 s.

As for `COC(=O)c1cc2n(n1)CC(C)(C(=O)NC1CCCCC1)N(c1ccc(F)cc1)C2=O` (stereo not given), the RP-LC retention time was 847 s.

In the case of `C[C@@H]1CCN(C(=O)C(CCCN=C(N)N)NS(=O)(=O)c2cccc3c2NC[C@H](C)C3)C(C(=O)O)C1` (stereo not given in full), the RP-LC retention time was 767 s.

`CCc1nc2c(NC(=O)c3cccs3)cccn2n1` displayed an RP-LC retention time of 761 s.

For the compound `O=C(NCCCN1CCCC1)c1nnc(-c2ccc(S(=O)(=O)N3CCCC3)cc2)o1`, the RP-LC retention time is 603 s.

`Cc1nn(-c2ccc(-c3ccccc3)nn2)c(C)c1S(=O)(=O)NCc1ccccc1` displayed an RP-LC retention time of 1030 s.

`O=C(Nc1ccc(F)c(F)c1)c1cc(C2CC2)on1`: the RP-LC retention time turned out to be 860 s.

The compound `O=C(CN1C(=O)CN(C(=O)Nc2ccccc2)c2ccccc21)NCc1ccccn1` displayed an RP-LC retention time of 587 s.

`O=C1NC2CCCCC2=C1CC(=O)N1CCCCC1` (stereo not given) displayed an RP-LC retention time of 633 s.

As to `COc1ccc(CC(C)(O)CNC(=O)Nc2ccccc2OC)cc1` (stereo not given), the RP-LC retention time turned out to be 750 s.

`CC(C)(C)c1ccc(S(=O)(=O)N2CCCCC2C(=O)N2CCN(c3ccccc3F)CC2)cc1` (stereo not given) gave an RP-LC retention time of 1280 s.

In turn, `CCOC(=O)CCC(=O)NCC1(c2ccc(OC)cc2)CCCC1` yielded an RP-LC retention time of 856 s.

`Cn1ncc2c(N3CCSCC3)nc(C(=O)NCc3cccnc3)nc21` yielded an RP-LC retention time of 570 s.

`CC(=O)N(Cc1nn(C)c2c1CN(S(=O)(=O)c1ccc3c(c1)CCC3)CC2)c1ccccc1` displayed an RP-LC retention time of 868 s.

`CC1(C(=O)NCc2ccccc2)CCN(S(=O)(=O)c2ccc(C3CCCCC3)cc2)CC1`: the RP-LC retention time was 1230 s.

`CC1CCN(CCCNC(=O)C2c3ccccc3C(=O)N(C)C2c2cccs2)CC1` (stereo not given) had an RP-LC retention time of 624 s.

In the case of `Cc1ccc(NC(=O)N2CCN(Cc3nc4cc(C)ccc4o3)CC2)cc1`, the RP-LC retention time was 725 s.

The compound `Cn1nccc1C(=O)N1CCC(Cc2nc(C3CC3)n[nH]2)C1` (stereo not given) displayed an RP-LC retention time of 578 s.

Compound `COc1cc(CN2C[C@@H]3C(=O)N(CCCN4CCCC4=O)C(=O)[C@@H]3C2)ccc1OC(C)C` came in with an RP-LC retention time of 610 s.

As to `CCOc1ccccc1NC(=O)Cn1ccnc1-c1ccnc(N2CCOCC2)c1`, the RP-LC retention time turned out to be 638 s.

`COC(=O)c1c(C)[nH]c(C(=O)N2CCC(CC(=O)NCc3ccccc3Cl)CC2)c1C` registered an RP-LC retention time of 775 s.

In the case of `COc1ccc2nc(NC3=NCN(Cc4cccnc4)CN3)nc(C)c2c1`, the RP-LC retention time was found to be 560 s.

The compound `O=C(Nc1cccnc1)c1ccc(Cl)c(S(=O)(=O)N2CCOCC2)c1` yielded an RP-LC retention time of 589 s.

For `CCc1ccc(CNC(=O)c2c(C)oc3nc(C)nc(N4CCCC4)c23)cc1`, the RP-LC retention time is 795 s.

The compound `CCCCN1CN=C(Nc2nc(C)c3ccccc3n2)NC1` returned an RP-LC retention time of 680 s.

Turning to `CC(=O)c1cccc(NC(=O)CN2C(=O)NC3(CCCCC3)C2=O)c1`, the RP-LC retention time was 711 s.

In turn, `COCc1nc2ccccc2n1CC(=O)NC1CCCCC1` yielded an RP-LC retention time of 642 s.

The compound `O=C(NC1CCCCC1)c1ccn[nH]1` came in with an RP-LC retention time of 642 s.

In the case of `COc1cc(-c2noc(C3CC(=O)N(c4cccc(Cl)c4)C3)n2)cc(OC)c1OC` (stereo not given), the RP-LC retention time worked out at 1010 s.

The compound `COc1cccc(NC(=O)N(C)CCc2noc(COc3ccccc3F)n2)c1` had an RP-LC retention time of 692 s.

Turning to `COc1ccc(N2C(=O)C3N=NN(c4ccc(F)cc4)C3C2=O)cc1` (stereo not given), the RP-LC retention time stood at 923 s.

Compound `Cc1cc(C)cc(NC(=O)N2CC(CN(C)C)C3(CCCCC3)C2)c1` (stereo not given) returned an RP-LC retention time of 695 s.

`CCCNC(=O)c1cc2sccc2n1C` displayed an RP-LC retention time of 816 s.

Turning to `COc1cccc(-c2noc(Cn3c(=O)n(-c4ccc(Cl)cc4)c(=O)c4sccc43)n2)c1`, the RP-LC retention time turned out to be 1050 s.

In turn, `COc1ccc(-c2ncccc2CNS(=O)(=O)c2cccc(OC)c2)cc1` registered an RP-LC retention time of 670 s.

In turn, `Cc1cccc(CNC(=O)c2cc3n(n2)CC(C)(C(=O)NCCC(C)C)N(C)C3=O)c1` (stereo not given) showed an RP-LC retention time of 801 s.

Consider `CC(CNC(=O)CCn1c(N2CCCC2)nc2ccsc2c1=O)c1ccccc1` (stereo not given), for which the RP-LC retention time turned out to be 819 s.

On to `CN1CCCN(C(=O)COc2ccc(Cl)cc2)c2ccccc21`, for which the RP-LC retention time stood at 960 s.

Consider `CCCCCC(=O)Nc1nc(-c2ccc(C)cc2C)cs1`, for which the RP-LC retention time was found to be 1190 s.

Turning to `COc1ccc(-n2ccnc(NC(=O)Nc3cccc(F)c3)c2=O)cc1OC`, the RP-LC retention time turned out to be 882 s.

`O=C(Cn1cccc1-c1nnc(C2CCC2)o1)Nc1cccc(Br)c1` had an RP-LC retention time of 974 s.

For `CCOC(=O)c1c(C)oc2nc(C)nc(NCc3ccccn3)c12`, the RP-LC retention time turned out to be 683 s.

`c1ccc(-c2cc(N3CCOCC3)n[nH]2)cc1` returned an RP-LC retention time of 686 s.

Compound `CCc1ccc(NC(=O)C2CCN(C(=O)c3ncn4c3COC(c3ccccc3)C4)CC2)cc1` (stereo not given) displayed an RP-LC retention time of 846 s.

On to `O=C(Nc1ccc2c(c1)OCO2)C1CCCN(c2ncnc3c2nc2n3CCCCC2)C1` (stereo not given), for which the RP-LC retention time is 759 s.

`COc1ccc(OC)c(-c2cn3ccn(-c4ccc(OC)c(Cl)c4)c(=O)c3n2)c1` yielded an RP-LC retention time of 885 s.

In the case of `C[C@H]([C@H](C)N1CC(=O)NC(=O)C1)N1CC(=O)NC(=O)C1`, the RP-LC retention time was 610 s.

For `CCN(CC)S(=O)(=O)N1CCC(C(=O)Nc2cccc(CCc3nc4ccc(C)cc4[nH]3)c2)CC1`, the RP-LC retention time was 708 s.

Turning to `CC(C)CC(=O)NC(Cc1ccccc1)c1nnc(N2CCN(C)CC2)o1` (stereo not given), the RP-LC retention time amounted to 621 s.

In turn, `Cc1sc2ccn(Cc3ccc(F)cc3)c(=O)c2c1C(=O)NCc1cccs1` had an RP-LC retention time of 945 s.

Consider `O=[N+]([O-])c1c(NCCCO)cc(NCc2ccc3c(c2)OCO3)c2nonc12`, for which the RP-LC retention time was 668 s.

Take `Cn1c(-c2cccc(C(=O)NCc3cc(F)cc(F)c3)c2)nc2cccnc21`: the RP-LC retention time worked out at 762 s.

As to `O=C(c1ccc(Cl)cc1)N1CCCC(c2nnc(-c3ccccc3)o2)C1` (stereo not given), the RP-LC retention time worked out at 874 s.

The compound `Cc1ccc(-c2ccc(-n3nc(C)c(S(=O)(=O)N4CCC(C)CC4)c3C)nn2)cc1` registered an RP-LC retention time of 1260 s.

In turn, `COC1CC2C=C(C)/C=C/C=C/C(=O)NC(c3ccccc3)C/C=C/CCC(O)CC(=O)C2=C1O` (stereo not given) came in with an RP-LC retention time of 977 s.

`O=S(=O)(CCc1ccccc1)N1CCCn2nc(-c3cccs3)cc2C1`: the RP-LC retention time was 988 s.

Turning to `COc1ccc(-c2nc3cnc(Br)cn3c2Nc2ccc3c(c2)OCCO3)cc1`, the RP-LC retention time is 900 s.

Compound `CCc1nc2cc(-c3noc(-c4n[nH]c5c4CCCC5)n3)ccc2o1` registered an RP-LC retention time of 1000 s.

As to `Cc1ccc(S(=O)(=O)Nc2ccc(-c3cn4cccc(C)c4n3)cc2)cc1C`, the RP-LC retention time worked out at 625 s.

Compound `Cc1ccc(-c2noc(C3CC3)n2)cc1S(=O)(=O)N1CCC(C(=O)Nc2nccs2)CC1` registered an RP-LC retention time of 937 s.

For the compound `O=c1ccc(-c2cccc(Br)c2)nn1Cc1nc(-c2cccs2)no1`, the RP-LC retention time stood at 1020 s.

For the compound `Cc1nc2nc(-c3ccc(C(C)(C)C)cc3)nn2c(C)c1CC(=O)N1CCC(C)CC1`, the RP-LC retention time was determined as 1090 s.

Take `NC(=O)C1CCN(C(=O)CN2c3ccc(Br)cc3-c3ccccc3S2(=O)=O)CC1`: the RP-LC retention time was 705 s.

`Cc1ccc2c(c1)N(C(=O)Cn1c(=O)c(CCC(=O)NCC(C)C)nc3ccccc31)CCO2` registered an RP-LC retention time of 884 s.

Consider `CC(C)(NC(=O)c1cccs1)C(=O)N1CCN(c2ccccc2)CC1`, for which the RP-LC retention time was determined as 687 s.
